Laboratory results: patent publication EP4793274A1, “SALT AND CRYSTAL FORM OF KIF18A INHIBITOR COMPOUND, PREPARATION METHOD THEREFOR AND USE THEREOF” (Hubei Bio-Pharmaceutical Industrial Technological Institute …, priority 2023, dated 2025)

Assays:
Assay type in all cases: physicochemical
[1] = Hygroscopicity by dynamic vapor sorption (DVS); conditions: 25 °C/80% RH
Protocol: Dynamic vapor sorption (DVS) curves were acquired on a DVS IntrInsic from Surface Measurement Systems (SMS). The relative humidity at 25 °C was corrected with the deliquescence points of LiCl, Mg(NO3)2, and KCl. Table A-5. DVS test parameters
The percentage changes in mass of the samples when the humidity changed (0% RH to 95% RH) at a constant temperature of 25 °C were collected. 157-166.

[2] = Dynamic solubility at 37 °C in H2O, SGF, FaSSIF and FeSSIF (HPLC concentration, pH of filtrate, XRPD of residual solid); conditions: listed as Crystal form E of methanesulfonate; for S: solubility: feeding concentration 10 mg/mL; for FC: crystal form change: XRPD of residual solid; for pH: pH of filtrate
Protocol: 0.82 mL of glacial acetic acid and 1.18 g of NaCl were added to a 100 mL volumetric flask and completely dissolved by addition of purified water.
The solubility of each sample in H2O, SGF, FaSSIF, and FeSSIF was determined at different time points (1 h, 2 h, 4 h, and 24 h). […] 137-156. […] Table C-2. Summary of dynamic solubility test results at 37 °C

[3] = Solid state stability (XRPD and HPLC purity)
Description: 167-171. […] Table C-3. Summary of solid state stability evaluation

[4] = 80 °C/sealed, 1 day, listed as Crystal form E of methanesulfonate

## Cc1cc(-c2cnn(-c3ccc(NS(=O)(=O)CCO)cc3N3CCC4(CC3)CC4)c2)nc(N2CCC(F)(F)CC2)n1 [crystal form E of the methanesulfonate]
[1]
  vapor sorption values: 2.324%
[2]; FaSSIF, 1 h, 60 min
  S: solubility: 60.4 µg/mL
[2]; FaSSIF, 2 h, 120 min
  S: solubility: 46.6 µg/mL
[2]; FaSSIF, 4 h, 240 min
  S: solubility: 35.9 µg/mL
[2]; FaSSIF, 24 h, 1440 min
  S: solubility: 18.7 µg/mL
[2]; FeSSIF, 1 h, 60 min
  S: solubility: 194.4 µg/mL
[2]; FeSSIF, 2 h, 120 min
  S: solubility: 183.4 µg/mL
[2]; FeSSIF, 4 h, 240 min
  S: solubility: 172.5 µg/mL
[2]; FeSSIF, 24 h, 1440 min
  S: solubility: 89.9 µg/mL
[2]; H2O, 1 h, 60 min
  S: solubility: 18.5 µg/mL
[2]; H2O, 2 h, 120 min
  S: solubility: 14.5 µg/mL
[2]; H2O, 4 h, 240 min
  S: solubility: 12.4 µg/mL
[2]; H2O, 24 h, 1440 min
  S: solubility: 4.5 µg/mL
[2]; SGF, 1 h, 60 min
  S: solubility: 125.1 µg/mL
[2]; SGF, 2 h, 120 min
  S: solubility: 100.2 µg/mL
[2]; SGF, 4 h, 240 min
  S: solubility: 84.6 µg/mL
[2]; SGF, 24 h, 1440 min
  S: solubility: 16.4 µg/mL
[2]; FaSSIF, 1 h
  FC: crystal form change: Yes
  pH: 2.78
[2]; FaSSIF, 2 h
  FC: crystal form change: Yes
  pH: 2.76
[2]; FaSSIF, 4 h
  FC: crystal form change: Yes
  pH: 2.77
[2]; FaSSIF, 24 h
  FC: crystal form change: Yes
  pH: 2.84
[2]; FeSSIF, 1 h
  FC: crystal form change: Yes
  pH: 4.69
[2]; FeSSIF, 2 h
  FC: crystal form change: Yes
  pH: 4.68
[2]; FeSSIF, 4 h
  FC: crystal form change: Yes
  pH: 4.70
[2]; FeSSIF, 24 h
  FC: crystal form change: Yes
  pH: 4.70
[2]; H2O, 1 h
  FC: crystal form change: Yes
  pH: 1.79
[2]; H2O, 2 h
  FC: crystal form change: Yes
  pH: 1.76
[2]; H2O, 4 h
  FC: crystal form change: Yes
  pH: 1.80
[2]; H2O, 24 h
  FC: crystal form change: Yes
  pH: 1.76
[2]; SGF, 1 h
  FC: crystal form change: Yes
  pH: 1.49
[2]; SGF, 2 h
  FC: crystal form change: Yes
  pH: 1.46
[2]; SGF, 4 h
  FC: crystal form change: Yes
  pH: 1.48
[2]; SGF, 24 h
  FC: crystal form change: Yes
  pH: 1.54
[3]; 25 °C/60% RH/open, 1 week
  HPLC results Relative to starting (%): 100.0%
[3]; 25 °C/60% RH/open, 1 week, listed as Crystal form E of methanesulfonate
  HPLC results Purity (area%): 98.39 area%
[3]; 40 °C/75% RH/open, 1 week
  HPLC results Relative to starting (%): 100.0%
[3]; 40 °C/75% RH/open, 1 week, listed as Crystal form E of methanesulfonate
  HPLC results Purity (area%): 98.39 area%
[3]; [4]
  HPLC results Purity (area%): 98.37 area%
  HPLC results Relative to starting (%): 100.0%
[3]; Starting, listed as Crystal form E of methanesulfonate
  HPLC results Purity (area%): 98.36 area%
[3]; XRPD after 25 °C/60% RH/open, 1 week, listed as Crystal form E of methanesulfonate
  Crystal form: Crystal form E of methanesulfonate
[3]; XRPD after 40 °C/75% RH/open, 1 week, listed as Crystal form E of methanesulfonate
  Crystal form: Crystal form E of methanesulfonate
[3]; XRPD after 80 °C/sealed, 1 day, listed as Crystal form E of methanesulfonate
  Crystal form: Crystal form E of methanesulfonate
